Reference: patent publication US20070142270A1, “Aryl Sulfonic Pyridoxines as Antiplatelet Agents” (priority 2004, published 2007)
Read-outs that look alike come from different tables or passages of the source.

Experiments:
[1] = target: T1, human Factor Xa (fXa) (Homo sapiens, UniProt P00742); assay: Inhibition of serine protease activity, factor Xa, chromogenic substrate Pefachrome Xa; type: biochemical; settings: 2 nM human Factor Xa, 300 μM substrate, pH 7.5
T1 construct: purchased Haematologic Technologies Inc. (Essex Junction, Vt.)
Method: (§1) The enzymes factor Xa (fXa), thrombin (factor IIa or fIIa), and trypsin were purchased from Haematologic Technologies Inc. (Essex Junction, Vt.). The substrates Pefachromes Xa, Th, and Try were purchased from Centerchem Inc. (Stamford, Conn.). Varying concentrations of the sulfonamide compounds were incubated for 30 min at room temperature with purified activated human enzyme in the appropriate buffer. Various concentrations of the corresponding synthetic substrate were added, and activity was measured at 37° C. by monitoring absorbance at 405 nm for 15 min with a Flurostar Optima plate reader. […] For controls, the appropriate percentage of solvent was used instead of test compound. The specific activity (ΔA405/min/nM protein), and the percent activity was calculated for each data point. The IC50 was calculated by linear regression of log[test compound] vs. % activity. The enzyme activity of the sulfonamide compound was determined using the Enzyme Kinetics Module of Sigmaplot 8.0 (SPSS Inc.)
The final concentration of human Factor Xa was 2 nM in a Tris/NaCl buffer (pH 7.5) containing 0.25% (w/v) polyethylene glycol (MW 8000). The substrate employed was Pefachrome Xa.

[2] = target: T2, human thrombin (factor IIa, fIIa) (Homo sapiens, UniProt P00734); assay: Inhibition of serine protease activity, thrombin, chromogenic substrate Pefachrome Th; type: biochemical; settings: 2 nM human thrombin, 300 μM substrate, pH 8.3
T2 construct: purchased Haematologic Technologies Inc. (Essex Junction, Vt.)
Method: as §1
The final concentration of human thrombin was 2 nM in a Tris/NaCl buffer (pH 8.3) containing 0.125% (w/v) bovine serum albumin. The substrate used was Pefachrome Th.

[3] = test system: human trypsin; assay: Inhibition of serine protease activity, trypsin, chromogenic substrate Pefachrome Try; type: biochemical; settings: 2 nM human trypsin, 300 μM substrate, pH 7.5
Method: as §1
The final concentration of human trypsin was 2 nM in a Tris/NaCl buffer (pH 7.5) containing 0.25% (w/v) bovine serum albumin and 20 μM CaCl2. The substrate used was Pefachrome Try.

[4] = test system: platelets (platelet rich plasma); assay: Inhibition of platelet aggregation in platelet rich plasma (Chrono-log aggregometer); type: cell-based; settings: human PRP; for inhibition at 250 µM: compound concentration 250 μM; for inhibition at 100 µM: compound concentration 100 μM
Method: Platelet poor plasma (PPP) was obtained by centrifuging the remainder of the sample after the platelets were removed at 800×g for about 10 minutes. The PRP was adjusted to a count of 280×10^9/L using a mixture of PRP and PPP. The platelets (200 μL) were incubated with the test compounds (25 μL) adjusted to various concentrations ([…]) for about 30 minutes at room temperature (approximate final platelet count in the incubation mixture of 250×10^9/L). The samples were incubated for about 3 minutes at about 37° C., and then transferred to the mixing wells of a Chrono-log 4 channel aggregometer (Chrono-log Corp., Havertown, Pa.). After baselines were established, the agonist (25 μL of 40 μM ADP (Sigma, St. Louis, Mo.) or 25 μL of 50 μg/mL and 10 μg/mL collagen (Helena Laboratories, Beaumont, Tex.) or 25 μL of 120 μM thrombin receptor activating peptide (TRAP) (Sigma)) was then added. Aggregation was monitored for 5 minutes at 37° C. with stirring (1000 rpm). The amplitude and slope of each tracing were calculated to determine the amount of aggregation. Control samples were performed using only solvent. The % reduction in aggregation was calculated for each sample compared to the proper solvent control.

[5] = test system: platelets (platelet rich plasma); assay: as above; type: cell-based; settings: compound concentration 500 μM, human PRP
[6] = agonist ADP 4 μM, read-out: % Reduction in Aggregation, ADP (4 μM)
[7] = agonist TRAP 12 μM, read-out: % Reduction in Aggregation, TRAP (12 μM)
[8] = agonist collagen 1 μg/mL, read-out: % Reduction in Aggregation, Collagen (1 μg/mL)
[9] = agonist collagen 5 μg/mL, read-out: % Reduction in Aggregation, Collagen (5 μg/mL)

T1 sequence (P00742 235-488 limits assumed): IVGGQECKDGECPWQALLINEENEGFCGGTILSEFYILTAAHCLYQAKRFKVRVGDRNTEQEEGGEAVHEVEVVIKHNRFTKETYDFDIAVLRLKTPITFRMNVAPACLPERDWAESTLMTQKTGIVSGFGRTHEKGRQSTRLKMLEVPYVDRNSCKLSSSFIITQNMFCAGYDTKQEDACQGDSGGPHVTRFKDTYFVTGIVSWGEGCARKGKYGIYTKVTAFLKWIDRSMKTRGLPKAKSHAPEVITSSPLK
T1 sequence (P00742 41-179 partner limits assumed): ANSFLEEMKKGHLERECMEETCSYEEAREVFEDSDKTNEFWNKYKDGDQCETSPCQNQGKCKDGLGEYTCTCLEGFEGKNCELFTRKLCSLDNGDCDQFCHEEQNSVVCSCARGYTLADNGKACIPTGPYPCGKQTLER

IC50 [1] [µM]	IC50 [2] [µM]	IC50 [3] [µM]	SMILES	inhibition at 250 µM [4, 6] [%]	inhibition at 250 µM [4, 7] [%]	inhibition at 250 µM [4, 8] [%]	inhibition at 250 µM [4, 9] [%]	also measured
329	> 1000	> 1000	Cc1ncc(CNc2ccc(-c3ccccc3S(=O)(=O)NC(C)(C)C)cc2)c(CO)c1O [Compound 2, 4′-[(5-Hydroxy-4-hydroxymethyl-6-methyl-pyridin-3-ylmethyl) -amino]-biphenyl-2-sulfonic acid tert-butylamide]					
> 1000	> 1000	> 1000	Cc1ncc(CNc2ccc(-c3ccccc3S(N)(=O)=O)cc2)c(CO)c1O [Compound 3, 4′-[(5-Hydroxy-4-hydroxymethyl-6-methyl-pyridin-3-ylmethyl)-amino]-biphenyl-2-sulfonic acid amide]	0	6	0	5	
362	> 1000	> 1000	Cc1ncc(CNC(=O)c2ccc(-c3ccccc3S(=O)(=O)NC(C)(C)C)cc2)c(CO)c1O [Compound 5, 2′-tert-Butylsulfamoyl-biphenyl-4-carboxylic acid (5-hydroxy-4-hydroxymethyl-6-methyl-pyridin-3-ylmethyl)-amide]					
306	> 1000	> 1000	Cc1ncc(CNC(=O)c2ccc(-c3ccccc3S(N)(=O)=O)cc2)c(CO)c1O [Compound 6, 2′-Sulfamoyl-biphenyl-4-carboxylic acid (5-hydroxy-4-hydroxymethyl-6-methyl-pyridin-3-ylmethyl)-amide]	0	1	5	0	
197	> 1000	> 1000	Cc1ncc(CO)c(CNc2ccc(-c3ccccc3S(=O)(=O)NC(C)(C)C)cc2)c1O [Compound 7, 4′-[(3-Hydroxy-5-hydroxymethyl-2-methyl-pyridin-4-ylmethyl)-amino]-biphenyl-2-sulfonic acid tert-butylamide]					
> 1000	> 1000	> 1000	Cc1ncc(CO)c(CNc2ccc(-c3ccccc3S(N)(=O)=O)cc2)c1O [Compound 8]					
15	862	12	Cc1ncc(CNc2ccc(-c3ccccc3S(N)(=O)=O)cc2)c(CO)c1OCc1cccc(C(=N)N)c1 [Compound 14]	10	9	15	5	
11	> 1000	11	Cc1ncc(CNc2ccc(-c3ccccc3S(N)(=O)=O)cn2)c(CO)c1OCc1cccc(C(=N)N)c1 [Compound 16]	3	1.3	14	0	
326	> 1000	> 1000	Cc1ncc(CNc2cccc(-c3ccccc3S(N)(=O)=O)c2)c(CO)c1O [Compound 21, 3′-[(5-Hydroxy-4-hydroxymethyl-6-methyl-pyridin-3-ylmethyl)-amino]-biphenyl-2-sulfonic acid amide]	14	0	4	0	
5	97	24	Cc1ncc(CNC(=O)c2ccc(-c3ccccc3S(N)(=O)=O)cc2)c(CO)c1OCc1cccc(C(=N)N)c1 [Compound 23]					
4	> 1000	15	Cc1ncc(CO)c(CNc2ccc(-c3ccccc3S(N)(=O)=O)cc2)c1OCc1cccc(C(=N)N)c1 [Compound 25, 3-{5-Hydroxymethyl-2-methyl-4-[(2′-sulfamoyl-biphenyl-4-ylamino)-methyl]-pyridin-3-yloxymethyl}-benzamidine]					
17	476	3	Cc1ncc(CO)c(CNc2cccc(-c3ccccc3S(N)(=O)=O)c2)c1OCc1ccc(C(=N)N)cc1 [Compound 28, 4-{5-Hydroxymethyl-2-methyl-4-[(2′-sulfamoyl-biphenyl-3-ylamino)-methyl]-pyridin-3-yloxymethyl}-benzamidine]	26	11	10	15	
18	171	4	Cc1ncc(CO)c(CNc2ccc(-c3ccccc3S(N)(=O)=O)cc2F)c1OCc1ccc(C(=N)N)cc1 [Compound 30, 4-{4-[(3-Fluoro-2′-sulfamoyl-biphenyl-4-ylamino)-methyl]-5-hydroxymethyl-2-methyl-pyridin-3-yloxymethyl}-benzamidine]					inhibition at 100 µM [4, 6]: 23%; inhibition at 100 µM [4, 7]: 57%; inhibition at 100 µM [4, 8]: 57%; inhibition at 100 µM [4, 9]: 19%
	> 1000	> 1000	Cc1ncc(CO)c(CNc2cccc(-c3ccccc3S(N)(=O)=O)c2)c1O [Compound 32, 3′-[(3-Hydroxy-5-hydroxymethyl-2-methyl-pyridin-4-ylmethyl)-amino]-biphenyl-2-sulfoniamide]					
105	300	18	Cc1ncc(CNc2ccc(C(=N)N)cc2)c(CO)c1O [Compound 33, reference compound]					inhibition at 500 µM [5, 6]: 4%; inhibition at 500 µM [5, 7]: 1%; inhibition at 500 µM [5, 9]: 15%; inhibition at 500 µM ([4]; agonist collagen 1 μg/mL, compound concentration 500 μM, read-out: % Reduction in Aggregation, Collagen (1 μg/mL)): 5%
29	> 1000	4	Cc1ncc(CNc2ccc(-c3ccc(C(=N)N)cc3)cc2)c(CO)c1O [Compound 34, reference compound]	63	93	41	1	

SMILES	IC50 [1] [µM]	IC50 [2] [µM]	IC50 [3] [µM]	inhibition at 250 µM [4, 6] [%]	inhibition at 250 µM [4, 7] [%]	inhibition at 250 µM [4, 8] [%]	inhibition at 250 µM [4, 9] [%]	also measured
Cc1ncc(CNc2ccc(-c3ccccc3S(N)(=O)=O)cn2)c(CO)c1O [Compound 31, 2-{6-[(5-Hydroxy-4-hydroxymethyl-6-methyl-pyridin-3-ylmethyl)-amino]-pyridin-3-yl}-benzenesulfonamide]	> 1000	> 1000	> 1000					
